In patent publication US9416143B2, “Griseofulvin derivatives” (PIERRE FABRE MEDICAMENT, priority 2012, dated 2016):
Read-outs that look alike come from different tables or passages of the source.

Legend:
Format in all cases: cell-based
[1] = tested on: MDA-MB-231 line (mammary adenocarcinoma cell line); assay: Cell proliferation (ATPLite) on MDA-MB-231 line; conditions: read 72 hours after addition
Method: (§1) The lines N1E115 (ATCC, CRL2263), MDA-MB-231 (ATCC, HTB26) and HSC-1 (Health Science Research Resources Bank, JCRB1015) were cultured in DMEM medium (Dulbecco's Modified Eagle Medium) supplemented with 2 mM of L-Glutamine (Sigma, G7513) and 10% foetal calf serum (Hyclone, SH30109.03) or 20% for the HSC-1 cells. The HCC-1937 (ATCC, CRL2336) and A549 (ATCC, CCL185) lines were cultured in RPMI medium (Roswell Park Memorial Institute Medium) supplemented with 10% foetal calf serum and 2 mM of L-Glutamine. Finally, the SCC114 (DSMZ, ACC662) line was cultured in MEM medium (Minimum Essential Medium Eagle) supplemented with 10% foetal calf serum and 2 mM of L-Glutamine. Initially, in 96-well plates (Perkin Elmer, 6005668), the cells were seeded in their respective culture media with 750 cells per well for N1E115; 1000 cells per well for SCC114 and A549; 2000 cells per well for HCC-1937 and HSC-1; 2500 cells per well for MDA-MB-231. Cascade dilution of each compound was performed in dimethylsulfoxide (DMSO) (Sigma, D8418) from 10 mM stock solutions in 100% DMSO. Each of the dilutions was added to the cells 24 hours after seeding. Under these conditions the final solvent concentration was 0.1% DMSO. Reading of cell proliferation was conducted 72 hours after addition of products with the ATPLite kit (Perkin Elmer, 6016947) and following the manufacturer's directions except in the case of the HCC-1937 line for which this reading was carried out 48 hours after treatment. Analysis of proliferation results was performed by comparing with conditions in which solely the vehicle was added to the cells. The dose-response curves obtained were analysed using Prism 4.03 software (GraphPad Software Inc.) to determine the concentration of each compound allowing 50% inhibition of cell proliferation (IC50).
(§2) As examples, the cytotoxic properties of some compounds of the invention evaluated on the lines A549 (lung cancer cell line), MDA-MB-231 line (mammary adenocarcinoma cell line), N1E115 (mouse brain neuroblastoma cell line), HCC-1937 line (primary ductam breast carcinoma cell line), HSC-1 (cutaneous squamous carcinoma cell line) and SCC114 line (oral squamous carcinoma cell line) are reported in Table 1, as compared with griseofulvin used as control product. The concentration values are expressed in micromolar units (μM).

[2] = tested on: HCC-1937 line (primary ductam breast carcinoma cell line); assay: Cell proliferation (ATPLite) on HCC-1937 line; conditions: read 48 hours after treatment
Method: as §1, §2

[3] = tested on: HSC-1 (cutaneous squamous carcinoma cell line); assay: Cell proliferation (ATPLite) on HSC-1 line; conditions: 50% inhibition of cell proliferation, read 72 hours after addition
Method: as §1, §2

[4] = tested on: A549 (lung cancer cell line); assay: Cell proliferation (ATPLite) on A549 line; conditions: read 72 hours after addition
Method: as §1, §2

[5] = tested on: SCC114 line (oral squamous carcinoma cell line); assay: Cell proliferation (ATPLite) on SCC114 line; conditions: read 72 hours after addition
Method: as §1, §2

[6] = tested on: N1E115 (mouse brain neuroblastoma cell line); assay: Cell proliferation (ATPLite) on N1E115 line; conditions: 50% inhibition of cell proliferation, read 72 hours after addition, read-out: IC50 (μM) N1E-115
Method: as §1, §2

[7] = 50% inhibition of cell proliferation
[8] = 50% inhibition of cell proliferation, read-out: IC50 (μM) HCC1937
[9] = Homo sapiens, MDA-MB-231, 50% inhibition of cell proliferation
[10] = Homo sapiens, HCC1937, 50% inhibition of cell proliferation
[11] = SCC114, 50% inhibition of cell proliferation

IC50 [1, 7] [µM]	IC50 [2, 8] [µM]	IC50 [3] [µM]	IC50 [4, 7] [µM]	IC50 [5, 7] [µM]	IC50 [6] [µM]	IC50 [1, 9] [µM]	IC50 [2, 10] [µM]	IC50 [5, 11] [µM]	IC50 ([4]; Homo sapiens, A549, 50% inhibition of cell proliferation) [µM]	Structure (SMILES)
0.46	> 10	0.86	0.44	0.74						COc1cc(OC)c2c(c1Cl)O[C@]1(C2=O)C2=C(C[C@](CCCCO)(c3ccccc3)O2)C(=O)C[C@H]1C [compound 14, (2 S,2′S,6R)-7′-chloro-2-(4-hydroxybutyl)-4′,6′-dimethoxy-6-methyl-2-phenyl-5,6-dihydro-2H,3′H-2,7′-spirobi[benzofuran]-3′,4(3H)-dione]
0.18	> 10	0.45	0.072	0.21						COc1cc(OC)c2c(c1Cl)O[C@]1(C2=O)C2=C(C[C@H](c3ccc(F)cc3)O2)C(=O)C[C@H]1C [compound 34, (2R,2′S,6R)-7′-chloro-2-(4-fluorophenyl)-4′,6′-dimethoxy-6-methyl-5,6-dihydro-2H,3′H-2,7′-spirobi[benzofuran]-3′,4(3H)-dione]
0.25	> 10	0.38		0.17						COc1cc(OC)c2c(c1Cl)O[C@]1(C2=O)C2=C(C[C@@H](c3ccc(F)cc3)O2)C(=O)C[C@H]1C [compound 35, (2S,2′S,6R)-7′-chloro-2-(4-fluorophenyl)-4′,6′-dimethoxy-6-methyl-5,6-dihydro-2H,3′H-2,7′-spirobi[benzofuran]-3′,4(3H)-dione]
0.27	> 10	1.4		0.47						COc1cc(OC)c2c(c1Cl)O[C@]1(C2=O)C2=C(C[C@H](c3ccccc3F)O2)C(=O)C[C@H]1C [compound 37, (2R,2′S,6R)-7′-chloro-2-(2-fluorophenyl)-4′,6′-dimethoxy-6-methyl-5,6-dihydro-2H,3′H-2,7′-spirobi[benzofuran]-3′,4(3H)-dione]
	> 10	0.79	0.86	0.57	0.22					COc1cc(OC)c2c(c1Cl)O[C@]1(C2=O)C2=C(C[C@@](CCO)(c3ccccc3)O2)C(=O)C[C@H]1C [compound 46, (2R,2′S,6R)-7′-chloro-2-(2-hydroxyethyl)-4′,6′-dimethoxy-6-methyl-2-phenyl-5,6-dihydro-2H,3′H-2,7′-spirobi[benzofuran]-3′,4(3H)-dione]
		0.14		0.021						COc1cc(OC)c2c(c1Cl)O[C@@]1(C=C([S+]([O-])Cc3ccccc3)C(=O)C[C@H]1C)C2=O (stereo partly drawn) [compound 97, (1′S,6′R)-3′-(benzylsulfinyl)-7-chloro-4,6-dimethoxy-6′-methyl-3H-spiro[benzofuran-2,1′-cyclohex[2]ene]-3,4′-dione]
		0.76		0.41						COc1cc(OC)c2c(c1Cl)O[C@@]1(C=C(S(=O)(=O)c3ccccc3)C(=O)C[C@H]1C)C2=O [compound 98, (1′S,6′R)-7-chloro-4,6-dimethoxy-6′-methyl-3′-(phenylsulfonyl)-3H-spiro[benzofuran-2,1′-cyclohex[2]ene]-3,4′-dione]
		1.3				0.64	> 10	0.73		COc1cc(OC)c2c(c1Cl)O[C@]1(C2=O)C(=O)c2c(nn(C)c2-c2ccccc2Cl)C[C@H]1C [compound 115, (2S,6′R)-7-chloro-3′-(2-chlorophenyl)-4,6-dimethoxy-2′,6′-dimethyl-6′,7′-dihydro-3H-spiro[benzofuran-2,5′-indazole]-3,4′(2′H)-dione]
		2.3		0.73						COc1cc(OC)c2c(c1Cl)O[C@]1(C2=O)C(=O)c2c(nn(C)c2-c2ccccc2Cl)C[C@H]1C [compound 126, (2S,3′R,6′R)-7-chloro-3′-(2-chlorophenyl)-4,6-dimethoxy-2′,6′-dimethyl-6′,7′-dihydro-3H-spiro[benzofuran-2,5′-indazole]-3,4′(2′H)-dione]
		0.25		0.14						COc1cc(OC)c2c(c1Cl)O[C@]1(C2=O)C(=O)c2c(nn(C)c2-c2ccccc2Br)C[C@H]1C [compound 130, (2S,3′S,6′R)-7-chloro-3′-(2-bromophenyl)-4,6-dimethoxy-2′,6′-dimethyl-6′,7′-dihydro-3H-spiro[benzofuran-2,5′-indazole]-3,4′(2′H)-dione]
		1.3		0.51						COc1cc(OC)c2c(c1Cl)O[C@]1(C2=O)C(=O)c2c(nn(C)c2-c2ccccc2C(F)(F)F)C[C@H]1C [compound 135, (2S,3′S,6′R)-7-chloro-4,6-dimethoxy-2′,6′-dimethyl-3′-(2-(trifluoromethyl)phenyl)-6′,7′-dihydro-3H-spiro[benzofuran-2,5′-indazole]-3,4′(2′H)-dione]
		> 10				1.4	> 10	0.43	0.45	COC(=O)c1cc(-c2ccc(F)cc2)c2c(n1)C[C@@H](C)[C@]1(Oc3c(Cl)c(OC)cc(OC)c3C1=O)C2=O [compound 164, (2S,7′R)-methyl 7-chloro-4′-(4-fluorophenyl)-4,6-dimethoxy-7′-methyl-3,5′-dioxo-7′,8′-dihydro-3H,5′H-spiro[benzofuran-2,6′-quinoline]-2′-carboxylate]
		0.5				0.17	> 10	0.23		COC(=O)C1=C[C@H](c2ccsc2)C2=C(C[C@@H](C)[C@]3(Oc4c(Cl)c(OC)cc(OC)c4C3=O)C2=O)N1 [compound 165, (2S,4′S,7′R)-methyl 7-chloro-4,6-dimethoxy-7′-methyl-3,5′-dioxo-4′-(thiophen-3-yl)-4′,5′,7′,8′-tetrahydro-1′H,3H-spiro[benzofuran-2,6′-quinoline]-2′-carboxylate]
		> 10	9.2	0.62						COc1cc(OC)c2c(c1Cl)O[C@]1(C2=O)C(N(C)CCN(C)c2ccccn2)=CC(=O)C[C@H]1C [compound 205, (1′S,6′R)-7-chloro-4,6-dimethoxy-6′-methyl-2′-(methyl(2-(methyl(pyridin-2-yl)amino)ethyl)amino)-3H-spiro[benzofuran-2,1′-cyclohex[2]ene]-3,4′-dione]
		0.77				0.22	> 10	0.38		COC(=O)c1cc(-c2ccsc2)c2c(n1)C[C@@H](C)[C@]1(Oc3c(Cl)c(OC)cc(OC)c3C1=O)C2O (stereo partly drawn) [compound 255, (2S,7′R)-methyl 7-chloro-5′-hydroxy-4,6-dimethoxy-7′-methyl-3-oxo-4′-(thiophen-3-yl)-7′,8′-dihydro-3H,5′H-spiro[benzofuran-2,6′-quinoline]-2′-carboxylate]
		0.84				0.33	> 10	0.51		COC(=O)c1cc(-c2ccc(F)cc2)c2c(n1)C[C@@H](C)[C@]1(Oc3c(Cl)c(OC)cc(OC)c3C1=O)C2O (stereo partly drawn) [compound 256, (2S,7′R)-methyl 7-chloro-4′-(4-fluorophenyl)-5′-hydroxy-4,6-dimethoxy-7′-methyl-3-oxo-7′,8′-dihydro-3H,5′H-spiro[benzofuran-2,6′-quinoline]-2′-carboxylate]
		2.4				0.43	> 10	0.51		COc1cc(OC)c2c(c1Cl)O[C@]1(C2=O)C(O)c2c(-c3ccccc3)cc(C(=O)OC(C)C)nc2C[C@H]1C (stereo partly drawn) [compound 257, (2S,7′R)-isopropyl 7-chloro-5′-hydroxy-4,6-dimethoxy-7′-methyl-3-oxo-4′-phenyl-7′,8′-dihydro-3H,5′H-spiro[benzofuran-2,6′-quinoline]-2′-carboxylate]
